Entries after “also recorded” stand apart in the source; their conditions may differ.
System: CYP26B1, CYP1A2, CYP3A4, CYP2C9, CYP2C19, CYP2D6
Assay: Selectivity across other P450-Glo CYP assays (heatmap, Figure 5)
Conditions: compared with CYP26A1 assay
Method: The CYP26B1 assay was a custom assay prepared as described above except it contained recombinant human CYP26B1 co-expressed with POR in E. coli (Cypex/BioIVT, Dundee, Scotland, UK; catalog # CYP071) in place of the Cyp26a1 sequence. […] The luminescence signal in each well was measured using a ViewLux plate reader.

For `OC(Cn1cncn1)(Cn1cncn1)c1ccc(F)cc1F` [Fluconazole], which “activity pattern / selectivity across CYP assays, in words” value is on record?
The value was “inhibitory effects in the CYP26A1 assay similar to their activity patterns on CYP26B1, CYP3A4, CYP2C9, and CYP2C19”.

Which “activity pattern / selectivity across CYP assays, in words” value does the source give for `CCCN(CCOc1c(Cl)cc(Cl)cc1Cl)C(=O)n1ccnc1` [Prochloraz] here?
The value was “inhibitory effects in the CYP26A1 assay similar to their activity patterns on CYP26B1, CYP3A4, CYP2C9, and CYP2C19”.

How did the “activity pattern / selectivity across CYP assays, in words” value turn out when `CCC(CC)C(c1ccc(Nc2nc3ccccc3s2)cc1)n1cncn1` (centres unmarked) [R115866/Talarozole, Talarozole] was run?
The value was “inhibitory effects in the CYP26A1 assay similar to their activity patterns on CYP26B1, CYP3A4, CYP2C9, and CYP2C19; also recorded: broad-spectrum inhibition across various CYP enzymes; also recorded: significant potency in both CYP26A1/B1 and CYP3A4 assays”.

How did the “activity pattern / selectivity across CYP assays, in words” value turn out when `CC(C)(C)C(=O)C(Oc1ccc(Cl)cc1)n1cncn1` (centres unmarked) [Triadimefon] was run?
Its value is “inhibitory effects in the CYP26A1 assay similar to their activity patterns on CYP26B1, CYP3A4, CYP2C9, and CYP2C19”.

Which “activity pattern / selectivity across CYP assays, in words” value does the source give for `CCCOC/C(=N\c1ccc(Cl)cc1C(F)(F)F)n1ccnc1` [Triflumizole] here?
Its value is “inhibitory effects in the CYP26A1 assay similar to their activity patterns on CYP26B1, CYP3A4, CYP2C9, and CYP2C19”.
